Like-named read-outs stand apart in the source and are kept apart here.

The text below walks through data of patent publication US20230181569A1, “COMPOSITIONS AND METHODS TO TREAT POLYCYSTIC KIDNEY DISEASE” (Board of Supervisors of Louisiana State University and …, priority 2020, published 2023).

One series deals with Sprague-Dawley rats. The note with it: cited from earlier work; for urine output: Sprague-Dawley rats; for sedation and hyperphagia: rat, in vivo.
The conditions of series [1]: in vivo; cited from earlier work.
In another series the test system is Pkd1 RC/RC mice. Kind of series: Chronic daily oral gavage of KOA in Pkd1 RC/RC mice (Example 1, Studies 1 and 2). Format: in vivo. The settings on record: daily oral gavage 4 or 8 weeks; for fibrosis area in the kidney / serum creatinine and blood urea levels / cyst size and numbers: Pkd1 RC/RC mice; for cyst size and numbers: 5 mg/kg JT-09 or 100 µg/kg nalfurafine; for GFR: mice with PKD. As for the experimental part:
Pkd1 RC/RC mice were used as the polycystic kidney disease model. 12 weeks old mice were given a KOA treatment (JT-09 or nalfurafine) or a vehicle at a dose of 5 mg/kg for JT-09 or 100 µg/kg for nalfurafine daily for 4 or 8 weeks.
Group 1: Pkd1 RC/RC mice + treatment (JT09 or nalfurafine) oral gavage (5 mg/kg for JT-09 or 100 µg/kg for nalfurafine) daily. n=24
Group 2: Pkd1 RC/RC mice + vehicle oral gavage daily. n=24
At 16 weeks old, 12 mice from both groups 1 and 2 were selected. These mice were each placed in a metabolic cage to collect urine for three 24-hour periods (a total of 72 hours). Each mouse was placed in a separate metabolic cage, as opposed to all mice in a single metabolic cage. Daily water intake for each mouse is also recorded. Mice were then deep anesthetized, and blood was be taken from their artery. Mice were then sacrificed. Both kidneys were perfused with PBS and fixed in neutral buffered formalin. Kidneys were processed for paraffin embedding and sectioning. H&E and picrosirus stain were performed on each section. Cystic index including cysts size and number were evaluated by a pathologist. Fibrosis was evaluated by the pathologist as well; in addition, a fibrotic score was given. The serum creatinine and blood urea level in the blood was then measured.
At 20 weeks old, the other set of 12 mice in both groups was then sacrificed and the same experiment was be performed as described herein.
At 16 weeks old, 12 mice from each group were anesthetized. The right jugular vein was catheterized for inulin infusion, and the bladder was catheterized for urine collection. GFR was evaluated based on the excretion rate of FITC-sinistrin.
At 20 weeks old, the same GFR measure was be repeated on the other 12 mice from each group.

The test system of the next series is WT mice. In words: Oral gavage of nalfurafine, urine output in wild type mice. Format: in vivo. As for the experimental part: The dose volume is 20 ml/kg.
Polycystic kidney disease (PKD) affects one person in every 400 to 1000 people in the U.S., which is associated with substantial mortality. […] There is no cure for PKD, and currently only one treatment is available to delay progression: tolvaptan, a vasopressin V2 receptor antagonist. This drug is expensive and indicated only in some patients who are at high risk for progression. The efficacy of tolvaptan proves that an active vasopressin pathway plays a critical role in this disease progression. However, the drug carries risk of severe hepatic toxicity, and patients treated with tolvaptan are suffering serious side effects, such as severe thirst and polyuria due to inhibition of V2 receptor in the distal nephrons. […] In addition to their inhibitory effect on vasopressin secretion and subsequent diuretic effect, KOAs can produce an anti-inflammatory micro-environment at the cellular level, which protects cardiac tissue from fibrosis.

The next series concerns Sprague Dawley rats. Kind of series: Stability of drug dissolved in drinking water, read out as urine output in rats. The format is in vivo. As for the experimental part: Day 1, the fresh made drug was given to rats. Day 4, the drug made on day 1 was given to the same rats. Veh, vehicle; Nal, nalfurafine. n=3 for each group.
Route of administration: Drug will be given orally in drinking water. We have performed a study to test the stability of the drug. […] We then left this water bottle at room temperature for three days, and we then gave this water to the same rats again. […] Therefore, the drug is stable for 3 days when it is dissolved in water at room temperature. We will make fresh nalfurafine in drinking water every 3 days in the chronic studies in both Aim 1 and Aim 2. We will give another group of mice the standard care of tolvaptan to serve as comparison of the treatment.

For series [2], the system named is patients. The settings on record: cited from earlier work.
A further series deals with Pkd1^RC/RC mice. In words: Acute oral gavage of nalfurafine, urine output in PKD mice. The format is in vivo. As for the experimental part:
Volume expansion, give mice saline at the dose of 20 ml/kg. (b) dose responsive curve of nalfurafine in Pkd1^RC/RC mice. Y axis, accumulative urine output of 5 hours after dosing. n=7-10 in each group.
ADPKD patients have an elevated level of vasopressin. Based on this observation, tolvaptan was discovered and later approved by its mechanism of action of blocking V2 receptors on the distal tubules. However, this also leads to the side effect of polyuria and severe thirst. […] Therefore, the long-term effects by nalfurafine on urine output can be limited unlike tolvaptan.
Therefore, we will give PKD mice nalfurafine daily at the maximum responsive dose 240 ug/kg/day for chronic studies in both Aim 1 and Aim 2 to obtain the greatest benefits.

The subject of another series is affected skin. The note with it: atopic dermatitis and pruritus; cited from earlier work.
A further series deals with kappa receptors (Homo sapiens, UniProt P41145). The note with it: cited from earlier work.
The conditions of series [3]: cited from earlier work.
The subject of series [4] is patients. The note with it: patients treated with tolvaptan; cited from earlier work.
For series [5] the following is noted: cited from earlier work. This is another data set of the same source.
The subject of series [6] is patients. The settings on record: human trials; cited from earlier work.
The next series concerns conscious rats. The settings on record: cited from earlier work.
[7] abbreviates: i.c.v. or i.v. infusion, conscious rats.

Sequence of kappa receptors (P41145 whole entry): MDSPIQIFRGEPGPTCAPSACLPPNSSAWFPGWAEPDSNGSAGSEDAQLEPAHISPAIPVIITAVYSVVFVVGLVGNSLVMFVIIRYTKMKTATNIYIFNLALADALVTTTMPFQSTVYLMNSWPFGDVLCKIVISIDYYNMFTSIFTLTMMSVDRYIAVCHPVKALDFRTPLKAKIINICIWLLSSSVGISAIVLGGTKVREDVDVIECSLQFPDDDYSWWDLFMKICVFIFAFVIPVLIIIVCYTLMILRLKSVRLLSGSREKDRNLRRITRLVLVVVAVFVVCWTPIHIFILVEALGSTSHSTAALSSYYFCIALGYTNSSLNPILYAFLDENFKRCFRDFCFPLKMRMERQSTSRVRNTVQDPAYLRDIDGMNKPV

For the molecule `CC(C)C1CCC(N2CCC(N3C(=O)C(=O)c4ccccc43)CC2)CC1` (centres unmarked) [AT-090], in the series with Sprague-Dawley rats, the urine output entry is “increase urine output”; the sedation and hyperphagia result was “sedation and hyperphagia”.
Take `CC(C)C1CCC(N2CCC(N3C(=O)/C(=N\O)c4ccccc43)CC2)CC1` (centres unmarked) [AT-127]: in the series on Sprague-Dawley rats, the urine output result is “increase urine output”; the sedation and hyperphagia entry is “sedation and hyperphagia”.
Consider `CC(C)C1CCC(N2CCC(n3c(CO)c(CO)c4ccccc43)CC2)CC1` (centres unmarked) [AT-390], for which, in the series on Sprague-Dawley rats, the urine output result is given as “increase urine output”.
For `CNC(=O)CC1C(=O)N(C2CCN(C3CCC(C(C)C)CC3)CC2)c2ccccc21` (centres unmarked) [AT-403], in the series on Sprague-Dawley rats, the urine output result is on record as “increase urine output”; the sedation and hyperphagia result is “sedation and hyperphagia”.
Turning to `CCCC[C@@H](NC(=O)[C@@H](Cc1ccccc1)NC(=O)[C@H](N)Cc1ccccc1)C(=O)N[C@H](CCCCN(C)C)C(=O)NCc1ccncc1` [JT09], in [1], the serum creatinine levels result is “reduces serum creatinine levels” and the urine output result is on record as “increases urine output”. Moreover, in the series with Pkd1 RC/RC mice, the “fibrosis area in the kidney” value was “reduce fibrosis area in the kidney”; the “serum creatinine and blood urea levels” value was “decrease serum creatinine and blood urea levels”; the “cyst size and numbers” value is “decrease cyst size and numbers”; the GFR result is reported as “improve GFR”.
`CN(C(=O)/C=C/c1ccoc1)[C@@H]1CC[C@@]2(O)[C@H]3Cc4ccc(O)c5c4[C@@]2(CCN3CC2CC2)[C@H]1O5` [nalfurafine]: the “behavioral or adverse effects” value in the series on WT mice (mouse, in vivo) is reported as “does not produce any apparent behavioral or adverse effects”. Also, the urine output result with WT mice (oral gavage, wild type mice) is “marked increase in urine output”. Further, in the series on Sprague Dawley rats (rats, first day, 30 ug/kg single dose), the “diuresis after fresh drug dissolved in water” value is on record as “produced diuresis”. Also, the “magnitude of increase in urine output, day 4 versus day 1” value in the series on Sprague Dawley rats (same rats, drug solution kept at room temperature for three days) was “the same on day 4 as it was on day 1”. The “stability when dissolved in water at room temperature” value with Sprague Dawley rats (water, room temperature) was 3 days. The “polyuria as a side effect” value in the series with patients [2] (clinical trials of nalfurafine) is given as “none of the clinical trials of nalfurafine have reported polyuria”. The “CNS-mediated side effects of traditional opioids (nausea/vomiting, sedation, respiratory depression, abuse potential, addiction, euphoria)” value in the series on patients [2] (human, in vivo) is “does not produce the CNS-mediated side effects”. The “extreme thirst and polyuria” value in the series on patients [2] (one year post-marketing surveillance study) is listed as “does not cause extreme thirst nor polyuria”. Besides, the “insomnia (worst side effect), share of patients” value in the series with patients [2] (post marketing analysis of 3,762 patients) is reported as “approximately 3%”. Besides, the “dose dependence of the increase in urine output” value with Pkd1^RC/RC mice (Pkd1^RC/RC mice, accumulative urine output of 5 hours after dosing) was “dose dependent”. In the series with Pkd1^RC/RC mice (Pkd1^RC/RC mice, doses of 100, 130, 180, 240 and 320 ug/kg), the “dose with the greatest increase in 5-hour urine output” value is 0.24 mg/kg. Also, the “highest effective dose in acute study” value with Pkd1^RC/RC mice (acute study) was determined as 0.24 mg/kg. Moreover, the “urine output compared with vehicle treatment” value in the series on Pkd1^RC/RC mice (oral administration, mice with PKD, within the 3 hours after dosing (FIG. 24a: 240 ug/kg)) is “significant increase in urine output”. For the same molecule, the “infiltration of CD4+ and CD8+ T cells” value in the series on affected skin is “reduced infiltration of CD4+ T cells and CD8+ T cells in the affected skin”. Also, at kappa receptors, the “selectivity for kappa receptors” value is on record as “highly selective for kappa receptors”. In the series with Pkd1 RC/RC mice, the “fibrosis area in the kidney” value was “reduce fibrosis area in the kidney”; the “serum creatinine and blood urea levels” value was “decrease serum creatinine and blood urea levels”; the “cyst size and numbers” value is “decrease cyst size and numbers”; the GFR result is “improve GFR”. Besides, the half life in series [3] (healthy volunteers) is 8 h. Besides, the half life in series [3] (hemodialysis patients) was 10 to 15 h.
With `Cc1ccccc1C(=O)Nc1ccc(C(=O)N2CCCC(O)c3cc(Cl)ccc32)c(C)c1` (centres unmarked) [tolvaptan], in the series on patients [4], the undesirable side effects entry was “severe thirst, polyuria and hepatic toxicity”. Besides, in [5], the water solubility entry is listed as “poor water solubility”.
“Ac—Arg—Tyr—Tyr—Arg—Trp—Lys—Lys—Lys—Lys—Lys—Lys—Lys—NH2 (Ac-RYYRWKKKKKKK-NH2) [ZP120, peptide NOP receptor partial agonist]”: the blood pressure entry in the series on patients [6] is recorded as “efficacious in lowering blood pressure”.
As to “nociceptin (FGGFTGARKSARKLANQ; Nociceptin; UniProt Q13519 130-146, looked up) [17 amino acid peptide, classical ligand of the nociceptin opioid peptide receptor]”, in the series with conscious rats (administered centrally), the “circulating levels of vasopressin” value is given as “reduces circulating levels of vasopressin”. Besides, in the series with conscious rats (centrally (i.c.v.) or at high doses peripherally (i.v. bolus or infusion)), the “blood pressure, heart rate and peripheral sympathetic nerve activity” value was “decreases blood pressure, heart rate and peripheral sympathetic nerve activity”. Moreover, in the series on conscious rats (setting [7]), the urinary sodium excretion entry is “decrease in urinary sodium excretion” and the urine flow rate entry is given as “marked increase in urine flow rate”.
